# Source: patent US10752634B2, “Crystalline forms of a brutons tyrosine kinase inhibitor” (Pharmacyclics LLC, priority 2012, dated 2020)
# Where two headings read alike, the source gives them in different places.
# How the values were obtained:
# OCI-Ly10 = test: Growth inhibition of OCI-Ly10 (ABC-DLBCL) cells; format: cell-based; conditions: Homo sapiens
# Excerpt: See U.S. Pat. No. 7,711,492 and Staudt et al., Nature, Vol. 463, Jan. 7, 2010, pp. 88-92, the contents of which are incorporated by reference in their entirety.
# [1] = for changes in the XRPD after GVS analysis: after GVS isotherm; for mass change: between 0-90% RH
# Method: Sorption isotherms were obtained using a SMS DVS Intrinsic moisture sorption analyser, controlled by DVS Intrinsic Control software v1.0.0.30. The sample temperature was maintained at 25° C. by the instrument controls. […] The weight change, (mass relaxation) of the sample as a function of % RH was constantly monitored by the microbalance (accuracy ±0.005 mg). Typically 5-20 mg of sample was placed in a tared mesh stainless steel basket under ambient conditions. The sample was loaded and unloaded at 40% RH and 25° C. (typical room conditions). A moisture sorption isotherm was performed as outlined below (2 scans giving 1 complete cycle). The standard isotherm was performed at 25° C. at 10% RH intervals over a 0-90% RH range. Data analysis was undertaken in Microsoft Excel using DVS Analysis Suite v6.0.0.7. The sample was recovered after completion of the isotherm and re-analysed by XRPD.
# [2] = Solid form stability on storage, by XRPD; format: physicochemical; conditions: for XRPD pattern post storage: stated as property of the form
# Method: X-Ray powder diffraction patterns were collected on a Bruker AXS C2 GADDS or Bruker AXS D8 diffractometer.
# X-Ray Powder Diffraction patterns were collected on a Bruker AXS C2 GADDS diffractometer using Cu Ka radiation (40 kV, 40 mA), automated XYZ stage, laser video microscope for auto-sample positioning and a HiStar 2-dimensional area detector. X-ray optics consists of a single Göbel multilayer mirror coupled with a pinhole collimator of 0.3 mm A weekly performance check is carried out using a certified standard NIST 1976 Corundum (flat plate). The beam divergence, i.e. the effective size of the X-ray beam on the sample, was approximately 4 mm. A θ-θ continuous scan mode was employed with a sample—detector distance of 20 cm which gives an effective 2θ range of 3.2°-29.7°. Typically the sample would be exposed to the X-ray beam for 120 seconds. The software used for data collection was GADDS for WNT 4.1.16 and the data were analysed and presented using Diffrac Plus EVA v11.0.0.2 or v13.0.0.2.
# X-Ray Powder Diffraction patterns were collected on a Bruker D8 diffractometer using Cu Ka radiation (40 kV, 40 mA), θ-2θ goniometer, and divergence of V4 and receiving slits, a Ge monochromator and a Lynxeye detector. The instrument is performance checked using a certified Corundum standard (NIST 1976). The software used for data collection was Diffrac Plus XRD Commander v2.5.0 and the data were analysed and presented using Diffrac Plus EVA v11.0.0.2 or v13.0.0.2. Samples were run under ambient conditions as flat plate specimens using powder as received. The sample was gently packed into a cavity cut into polished, zero-background (510) silicon wafer. The sample was rotated in its own plane during analysis. The details of the data collection are: • Angular range: 2 to 42° 2θ • Step size: 0.05° 2θ • Collection time: 0.5 s/step
# [3] = Thermodynamic aqueous solubility; format: physicochemical
# Method: The suspension was equilibrated at 25° C. for 24 hours then the pH was measured. The suspension was then filtered through a glass fibre C filter. The filtrate was then diluted by an appropriate factor e.g. 101. Quantitation was by HPLC with reference to a standard solution of approximately 0.25 mg/ml in DMSO. Different volumes of the standard, diluted and undiluted sample solutions were injected. The solubility was calculated using the peak areas determined by integration of the peak found at the same retention time as the principal peak in the standard injection.
# Analysis was performed on an Agilent HP1100 series system equipped with a diode array detector and using ChemStation software vB.02.01-SR1.
smiles,measurement,setting,value
"C=CC(=O)N1CCC[C@@H](n2nc(-c3ccc(Oc4ccccc4)cc3)c3c(N)ncnc32)C1 [Compound 1, 1-((R)-3-(4-amino-3-(4-phenoxyphenyl)-1H-pyrazolo[3,4-d]pyrimidin-1-yl)piperidin-1-yl)prop-2-en-1-one]",EC50,"OCI-Ly10; OCI-Ly10, 1 h, read-out: EC50 1 hour pulse, growth of OCI-Ly10",50 nM
same,EC50,"OCI-Ly10; OCI-Ly10, read-out: EC50 continuous exposure, growth of OCI-Ly10",10 nM
"C=CC(=O)N1CCC[C@@H](n2nc(-c3ccc(Oc4ccccc4)cc3)c3c(N)ncnc32)C1 [Form B, 1-((R)-3-(4-amino-3-(4-phenoxyphenyl)-1H-pyrazolo[3,4-d]pyrimidin-1-yl)piperidin-1-yl)prop-2-en-1-one]",hysteresis in GVS,"[1]; 0-90% RH, 25° C.",No hysteresis
same,changes in the XRPD after GVS analysis,[1],No significant changes
same,mass change,[1]; 25° C.,2.3 % w/w
"C=CC(=O)N1CCC[C@@H](n2nc(-c3ccc(Oc4ccccc4)cc3)c3c(N)ncnc32)C1 [Form A, 1-((R)-3-(4-amino-3-(4-phenoxyphenyl)-1H-pyrazolo[3,4-d]pyrimidin-1-yl)piperidin-1-yl)prop-2-en-1-one]",changes in the XRPD after GVS analysis,[1],No significant changes
same,mass change,[1]; 25° C.,< 0.3 % w/w
same,XRPD pattern post storage,[2]; 25° C. and 97% RH for at least a week,substantially the same
same,XRPD pattern post storage,[2]; 40° C. and 75% RH for at least a week,substantially the same
same,crystallinity after storage,[2]; one week storage at 25° C./97% RH,unaffected
same,crystallinity after storage,[2]; one week storage at 40° C./75% RH,unaffected
same,observed aqueous solubility,"[3]; about pH 8, stated as property of the form",about 0.013 mg/mL
same,"Solubility in aqueous solution, Conc. Found","[3]; pH 8, 25° C., 24 hours",13 µg/mL
"C=CC(=O)N1CCC[C@@H](n2nc(-c3ccc(Oc4ccccc4)cc3)c3c(N)ncnc32)C1 [Form E, 1-((R)-3-(4-amino-3-(4-phenoxyphenyl)-1H-pyrazolo[3,4-d]pyrimidin-1-yl)piperidin-1-yl)prop-2-en-1-one]",form conversion on standing and drying,[2]; standing at ambient temperature overnight and drying at 40° C. in vacuo for one day,"converted to Compound 1, Form A"
